Data as given in patent US12324802B2, “Modulators of cystic fibrosis transmembrane conductance regulator” (Vertex Pharmaceuticals Incorporated, priority 2020, dated 2025).

Biological target: T1, CFTR (F508del/MF-HBE cells) (Homo sapiens, UniProt P13569, DEL508-508)
T1 construct: human bronchial epithelial (HBE) cells derived from CF subjects heterozygous for F508del and a minimal function CFTR mutation; endogenous in cells; host or cells: primary human bronchial epithelial cells from CF subjects (F508del/MF genotype)
T1 sequence (P13569 with tags, fused parts or gaps DEL508-508): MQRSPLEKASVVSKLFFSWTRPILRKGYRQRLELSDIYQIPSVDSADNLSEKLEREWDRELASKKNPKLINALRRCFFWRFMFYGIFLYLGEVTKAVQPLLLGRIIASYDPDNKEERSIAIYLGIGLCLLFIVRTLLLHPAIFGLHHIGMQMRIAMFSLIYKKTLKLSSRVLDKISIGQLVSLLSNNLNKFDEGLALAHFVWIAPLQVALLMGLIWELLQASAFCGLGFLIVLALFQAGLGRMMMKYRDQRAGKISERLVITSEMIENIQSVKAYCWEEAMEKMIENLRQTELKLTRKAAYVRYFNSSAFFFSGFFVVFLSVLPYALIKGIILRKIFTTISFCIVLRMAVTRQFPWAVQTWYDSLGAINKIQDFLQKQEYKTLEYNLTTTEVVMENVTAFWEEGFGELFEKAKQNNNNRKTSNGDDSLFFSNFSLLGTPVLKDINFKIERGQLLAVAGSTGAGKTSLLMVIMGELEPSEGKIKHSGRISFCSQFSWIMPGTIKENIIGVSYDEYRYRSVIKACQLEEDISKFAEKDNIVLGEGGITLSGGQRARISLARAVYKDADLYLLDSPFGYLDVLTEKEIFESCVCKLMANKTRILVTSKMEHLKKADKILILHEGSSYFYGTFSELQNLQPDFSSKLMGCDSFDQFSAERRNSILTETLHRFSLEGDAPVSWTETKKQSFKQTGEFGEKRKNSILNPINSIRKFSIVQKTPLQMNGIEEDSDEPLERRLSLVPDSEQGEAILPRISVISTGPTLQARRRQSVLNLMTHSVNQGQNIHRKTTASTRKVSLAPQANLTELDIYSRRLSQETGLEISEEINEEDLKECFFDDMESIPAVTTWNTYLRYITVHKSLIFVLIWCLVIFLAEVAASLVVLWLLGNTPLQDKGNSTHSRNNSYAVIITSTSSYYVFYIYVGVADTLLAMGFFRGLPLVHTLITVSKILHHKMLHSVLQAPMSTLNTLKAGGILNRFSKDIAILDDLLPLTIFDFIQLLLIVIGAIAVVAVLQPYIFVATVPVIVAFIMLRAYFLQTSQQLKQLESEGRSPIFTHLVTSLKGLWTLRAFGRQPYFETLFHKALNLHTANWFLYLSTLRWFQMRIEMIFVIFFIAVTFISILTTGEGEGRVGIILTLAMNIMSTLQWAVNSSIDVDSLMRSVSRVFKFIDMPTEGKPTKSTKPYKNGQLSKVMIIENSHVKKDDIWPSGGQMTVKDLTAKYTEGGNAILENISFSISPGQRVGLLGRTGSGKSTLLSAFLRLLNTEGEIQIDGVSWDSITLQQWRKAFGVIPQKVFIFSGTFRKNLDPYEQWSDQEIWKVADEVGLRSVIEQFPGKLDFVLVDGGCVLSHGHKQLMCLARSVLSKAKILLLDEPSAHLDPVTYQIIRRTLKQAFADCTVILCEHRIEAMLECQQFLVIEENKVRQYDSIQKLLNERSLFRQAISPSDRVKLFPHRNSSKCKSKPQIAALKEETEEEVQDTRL
Experiment: Ussing chamber assay of CFTR-mediated short-circuit currents (identification of potentiator compounds)
Format: cell-based
Conditions: CFTR-mediated ISC in F508del/MF-HBE cells; incubated 18-24 hours at 37° C. with 10 μM (14S)-8-[3-(2-{dispiro[2.0.2.1]heptan-7-yl}ethoxy)-1H-pyrazol-1-yl]-...-2,2,4-trione, 20% human serum
Summary of the method: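 Short-circuit current was voltage-clamped at 0 mV and 37 °C in pH 7.4 HEPES buffers, with amiloride (30 μM) on the apical side. The CFTR component was defined as forskolin (20 μM) peak minus residual current after BPO/GlyH-101/CFTRinh-172 at 20 μM each. Cells had been pretreated 18–24 h with potentiator concentrations and 10 μM corrector in 20% human serum, kept throughout the measurement.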

SMILES | EC50
Nc1cc(C(F)(F)F)c2nc1-c1nnc(o1)[C@@](O)(C(F)(F)F)CCCCC[C@@H]1CCCN21 [Compound 4, (6R,12R)-20-amino-6,18-bis(trifluoromethyl)-22-oxa-3,4,16,21-tetraazatetracyclo[15.3.1.12,5.012,16]docosa-1(21),2,4,17,19-pentaen-6-ol] | < 500 nM
Nc1cc(C(F)(F)F)c2nc1-c1nnc(o1)[C@](O)(C(F)(F)F)CCCCC[C@@H]1CCCN21 [Compound 5, (6S,12R)-20-amino-6,18-bis(trifluoromethyl)-22-oxa-3,4,16,21-tetraazatetracyclo[15.3.1.12,5.012,16]docosa-1(21),2,4,17,19-pentaen-6-ol] | > 1000 nM
Nc1cc(C(F)(F)F)c2nc1-c1nnc(o1)C(O)(C(F)(F)F)CCCCC1CCN2C1 (stereo not drawn) [Compound 8, 16-amino-10,18-bis(trifluoromethyl)-20-oxa-2,12,13,19-tetraazatetracyclo[13.3.1.12,5.111,14]henicosa-1(19),11,13,15,17-pentaen-10-ol] | < 500 nM
Nc1cc(C(F)(F)F)c2nc1-c1nnc(o1)C(O)(C(F)(F)F)CCCCC1CCN2C1 (stereo not drawn) [Compound 9, 16-amino-10,18-bis(trifluoromethyl)-20-oxa-2,12,13,19-tetraazatetracyclo[13.3.1.12,5.111,14]henicosa-1(19),11,13,15,17-pentaen-10-ol] | < 500 nM
Nc1cc(C(F)(F)F)c2nc1-c1nnc(o1)/C(C(F)(F)F)=C\CCCC[C@@H]1CCCN21 [Compound 10, (6E,12R)-6,18-bis(trifluoromethyl)-22-oxa-3,4,16,21-tetraazatetracyclo[15.3.1.12,5.012,16]docosa-1(21),2,4,6,17,19-hexaen-20-amine] | > 1000 nM
CNc1cc(C(F)(F)F)c2nc1-c1nnc(o1)[C@@](O)(C(F)(F)F)CCCCC[C@@H]1CCCN21 [Compound 13, (6R,12R)-20-(methylamino)-6,18-bis(trifluoromethyl)-22-oxa-3,4,16,21-tetraazatetracyclo[15.3.1.12,5.012,16]docosa-1(21),2,4,17,19-pentaen-6-ol] | < 500 nM
CCNc1cc(C(F)(F)F)c2nc1-c1nnc(o1)[C@@](O)(C(F)(F)F)CCCCC[C@@H]1CCCN21 [Compound 14, (6R,12R)-20-(ethylamino)-6,18-bis(trifluoromethyl)-22-oxa-3,4,16,21-tetraazatetracyclo[15.3.1.12,5.012,16]docosa-1(21),2,4,17,19-pentaen-6-ol] | < 500 nM
CNc1cc(C(F)(F)F)c2nc1-c1nnc(o1)[C@](O)(C(F)(F)F)CCCCC[C@@H]1CCCN21 [Compound 15, (6S,12R)-20-(methylamino)-6,18-bis(trifluoromethyl)-22-oxa-3,4,16,21-tetraazatetracyclo[15.3.1.12,5.012,16]docosa-1(21),2,4,17,19-pentaen-6-ol] | > 1000 nM
CCNc1cc(C(F)(F)F)c2nc1-c1nnc(o1)[C@](O)(C(F)(F)F)CCCCC[C@@H]1CCCN21 [Compound 16, (6S,12R)-20-(ethylamino)-6,18-bis(trifluoromethyl)-22-oxa-3,4,16,21-tetraazatetracyclo[15.3.1.12,5.012,16]docosa-1(21),2,4,17,19-pentaen-6-ol] | > 1000 nM
Nc1cc(C(F)(F)F)c2nc1-c1nnc(o1)C(O)(C(F)(F)F)CCCCC1CCCN21 (stereo not drawn) [Compound 17, 19-amino-6,17-bis(trifluoromethyl)-21-oxa-3,4,15,20-tetraazatetracyclo[14.3.1.12,5.011,15]henicosa-1(20),2,4,16,18-pentaen-6-ol] | < 500 nM
Nc1cc(C(F)(F)F)c2nc1-c1nnc(o1)C(O)(C(F)(F)F)CCCCC1CCCN21 (stereo not drawn) [Compound 18, 19-amino-6,17-bis(trifluoromethyl)-21-oxa-3,4,15,20-tetraazatetracyclo[14.3.1.12,5.011,15]henicosa-1(20),2,4,16,18-pentaen-6-ol] | < 500 nM
Nc1cc(C(F)(F)F)c2nc1-c1nnc(o1)C(=NO)CCCCC[C@@H]1CCCN21 [Compound 31, (12R)-6-(hydroxyimino)-18-(trifluoromethyl)-22-oxa-3,4,16,21-tetraazatetracyclo[15.3.1.12,5.012,16]docosa-1(21),2,4,17,19-pentaen-20-amine] | < 500 nM
Nc1cc(C(F)(F)F)c2nc1-c1nnc(o1)C(=O)CCCCC[C@@H]1CCCN21 [Compound 36, (12R)-20-amino-18-(trifluoromethyl)-22-oxa-3,4,16,21-tetraazatetracyclo[15.3.1.12,5.012,16]docosa-1(21),2,4,17,19-pentaen-6-one] | < 500 nM
CN1CCCCCCC(=O)C2=NN=C(O2)c2nc1c(C(F)(F)F)cc2N [Compound 58, 17-amino-13-methyl-15-(trifluoromethyl)-19-oxa-3,4,13,18-tetrazatricyclo[12.3.1.12,5]nonadeca-1(18),2,4,14,16-pentaen-6-one] | < 500 nM
Nc1cc(C(F)(F)F)c2nc1-c1nnc(o1)[C@](O)(C(F)(F)F)c1cc(ccc1F)CCC[C@@H]1CCCN21 [Compound 59, (6S,15R)-23-amino-8-fluoro-6,21-bis(trifluoromethyl)-26-oxa-3,4,19,24-tetraazapentacyclo[18.3.1.12,5.17,11.015,19]hexacosa-1(24),2,4,7(25),8,10,20,22-octaen-6-ol] | < 500 nM
Nc1cc(C(F)(F)F)c2nc1-c1nnc(o1)[C@@](O)(C(F)(F)F)c1cc(ccc1F)CCC[C@@H]1CCCN21 [Compound 60, (6R,15R)-23-amino-8-fluoro-6,21-bis(trifluoromethyl)-26-oxa-3,4,19,24-tetraazapentacyclo[18.3.1.12,5.17,11.015,19]hexacosa-1(24),2,4,7(25),8,10,20,22-octaen-6-ol] | < 500 nM
Nc1cc(C(F)(F)F)c2nc1-c1nnc(o1)-c1c(O)cccc1CCCC[C@@H]1CCCN21 [Compound 134, (16R)-24-amino-22-(trifluoromethyl)-26-oxa-3,4,20,25-tetraazapentacyclo[19.3.1.12,5.06,11.016,20]hexacosa-1(25),2,4,6(11),7,9,21,23-octaen-7-ol] | > 1000 nM
CC1(C)CC2CCCc3ccc(F)c(c3)C(O)(C(F)(F)F)C3=NN=C(O3)c3nc(c(C(F)(F)F)cc3N)N2C1 (stereo not drawn) [Compound 135, 23-amino-8-fluoro-17,17-dimethyl-6,21-bis(trifluoromethyl)-26-oxa-3,4,19,24-tetraazapentacyclo[18.3.1.12,5.17,11.015,19]hexacosa-1(24),2,4,7(25),8,10,20,22-octaen-6-ol] | < 500 nM
CC1(C)CC2CCCc3ccc(F)c(c3)C(O)(C(F)(F)F)C3=NN=C(O3)c3nc(c(C(F)(F)F)cc3N)N2C1 (stereo not drawn) [Compound 136, 23-amino-8-fluoro-17,17-dimethyl-6,21-bis(trifluoromethyl)-26-oxa-3,4,19,24-tetraazapentacyclo[18.3.1.12,5.17,11.015,19]hexacosa-1(24),2,4,7(25),8,10,20,22-octaen-6-ol] | < 500 nM
Nc1cc(Br)c2nc1-c1nnc(o1)C(O)(C(F)(F)F)CCCCC[C@@H]1CCCN21 (stereo partly drawn) [Compound 144, (12R)-20-amino-18-bromo-6-(trifluoromethyl)-22-oxa-3,4,16,21-tetraazatetracyclo[15.3.1.12,5.012,16]docosa-1(21),2,4,17,19-pentaen-6-ol] | < 500 nM
Nc1cc(Sc2ccc(OC(F)(F)F)cc2)c2nc1-c1nnc(o1)C(O)(C(F)(F)F)CCCCC[C@@H]1CCCN21 (stereo partly drawn) [Compound 146, (12R)-20-amino-18-{[4-(trifluoromethoxy)phenyl]sulfanyl}-6-(trifluoromethyl)-22-oxa-3,4,16,21-tetraazatetracyclo[15.3.1.12,5.012,16]docosa-1(21),2,4,17,19-pentaen-6-ol] | < 500 nM
Nc1cc(C(F)(F)F)c2nc1-c1nnc(o1)C(O)(C(F)(F)F)CCCOC[C@@H]1CCCN21 (stereo partly drawn) [Compound 147, (12S)-20-amino-6,18-bis(trifluoromethyl)-10,22-dioxa-3,4,16,21-tetraazatetracyclo[15.3.1.12,5.012,16]docosa-1(21),2,4,17,19-pentaen-6-ol] | < 500 nM
Nc1cc(C(F)(F)F)c2nc1-c1nnc(o1)[C@@](O)(C(F)(F)F)CCCCCC(C(=O)N1CCCC1)N2 (stereo partly drawn) [Compound 154, [(6R)-17-amino-6-hydroxy-6,15-bis(trifluoromethyl)-19-oxa-3,4,13,18-tetrazatricyclo[12.3.1.12,5]nonadeca-1(18),2,4,14,16-pentaen-12-yl]-pyrrolidin-1-yl-methanone] | > 1000 nM
CC1(C)CCCCC[C@](O)(C(F)(F)F)C2=NN=C(O2)c2nc(c(C(F)(F)F)cc2N)N1 [Compound 163, (6R)-17-amino-12,12-dimethyl-6,15-bis(trifluoromethyl)-19-oxa-3,4,13,18-tetrazatricyclo[12.3.1.12,5]nonadeca-1(18),2,4,14,16-pentaen-6-ol] | < 500 nM
CC1(C)CCCCC[C@@](O)(C(F)(F)F)C2=NN=C(O2)c2nc(c(C(F)(F)F)cc2N)N1 [Compound 165, (6S)-17-Amino-12,12-dimethyl-6,15-bis(trifluoromethyl)-19-oxa-3,4,13,18-tetrazatricyclo[12.3.1.12,5]nonadeca-1(18),2,4,14,16-pentaen-6-ol] | > 1000 nM
Nc1cc(C(F)(F)F)c2nc1-c1nnc(o1)[C@@](O)(C(F)(F)F)CCCCCC(c1ccccn1)N2 (stereo partly drawn) [Compound 166, (6R)-17-amino-12-(2-pyridyl)-6,15-bis(trifluoromethyl)-19-oxa-3,4,13,18-tetrazatricyclo[12.3.1.12,5]nonadeca-1(18),2,4,14,16-pentaen-6-ol] | < 500 nM
Nc1cc(C(F)(F)F)c2nc1-c1nnc(o1)[C@@](O)(C(F)(F)F)CCCCCC1(CCC1)N2 [Compound 173, (6R)-17-amino-6,15-bis(trifluoromethyl)spiro[19-oxa-3,4,13,18-tetrazatricyclo[12.3.1.12,5]nonadeca-1(18),2,4,14,16-pentaene-12,1′-cyclobutane]-6-ol] | < 500 nM
